Measurements taken from patent US20110118269A1, “FUSED PYRAZINE COMPOUNDS AS THEIR SALTS, USEFUL FOR THE TREATMENT OF DEGENERATIVE AND INFLAMMATORY DISEASES” (priority 2009, published 2011).

Key:
MMP1 expression by SFs = assay: MMP assay proof of principle: MMP1 produced by complex trigger activated SFs; format: cell-based; details: 48 hrs, read-out: IC50, reduction of MMP1 expression by SFs
Method: A 384-well format ELISA for measurement of MMP1 is developed. Various primary antibodies are tested, as well as various ELISA protocols. The following protocol is developed and validated to measure MMP1 levels in SF supernatant in 384 well plates: white Lumitrac 600 384 well plates (Greiner) are coated with 2 μg/mL anti-MMP1 antibody MAB1346 (Chemicon). The antibody is diluted in buffer 40 (1.21 g Tris base (Sigma), 0.58 g NaCl (Calbiochem) and 5 mL 10% NaN3 (Sigma) in 1 L milliQ water and adjusted to pH 8.5). After overnight incubation at 4° C., plates are washed with PBS (80 g NaCl, 2g KCl (Sigma), 11.5 g Na2HPO4.7H2O and 2 g KH2PO4 in 10 L milliQ; pH 7.4) and blocked with 100 μL/well Casein buffer (2% Casein (VWR International) in PBS). Next day, casein buffer is removed from ELISA plates and replaced by 50 μL/well EC buffer (4 g casein, 2.13 g Na2HPO4 (Sigma), 2 g bovine albumin (Sigma), 0.69 g NaH2PO4.H2O (Sigma), 0.5 g CHAPS (Roche), 23.3 g NaCl, 4 mL 0.5 M EDTA pH 8 (Invitrogen), 5 mL 10% NaN3 in 1 L milliQ and adjusted to pH 7.0). 0.25 mM DTT (Sigma) is added to the thawed samples plates. After removal of the EC buffer, 20 μL of sample is transferred to the ELISA plates. […] Readout is performed on the Luminoscan Ascent Luminometer (Labsystems) with an integration time of 200 msec or with an Envision reader (Perkin Elmer). […]

[1] = after 24 months treatment; cited from earlier work

IC50 (MMP1 expression by SFs)	Structure (SMILES)	patients achieving an ACR50 score [1]
~1 nM	C[C@@H]1C[C@H]2[C@@H]3CCC4=CC(=O)C=C[C@]4(C)[C@@]3(F)[C@@H](O)C[C@]2(C)[C@@]1(O)C(=O)CO [dexamethasone]	
	CN(Cc1cnc2nc(N)nc(N)c2n1)c1ccc(C(=O)N[C@@H](CCC(=O)O)C(=O)O)cc1 [methotrexate]	30%
